Test results published in the NIST ThermoML archive (doi:10.1021/je0601255).
± gives the expanded uncertainty stated by the source.

Legend:
[1] = 101 kPa, Liquid; for viscosity: Capillary tube (Ostwald / Ubbelohde) method; for mass density: Pycnometric method
[2] = xn = mol fraction of the nth substance listed; details: 101 kPa, Liquid, x1 = 1; for viscosity: Capillary tube (Ostwald / Ubbelohde) method; for mass density: Pycnometric method

Structure (SMILES) | viscosity ([1]; 288.15 K) [mPa·s] | mass density ([1]; 288.15 K) [kg/m3] | viscosity ([1]; 298.15 K) [mPa·s] | mass density ([1]; 298.15 K) [kg/m3] | viscosity ([1]; 308.15 K) [mPa·s] | mass density ([1]; 308.15 K) [kg/m3] | viscosity ([1]; 318.15 K) [mPa·s] | mass density ([1]; 318.15 K) [kg/m3] | viscosity ([2]; 288.15 K) [mPa·s] | mass density ([2]; 288.15 K) [kg/m3] | viscosity ([2]; 298.15 K) [mPa·s] | mass density ([2]; 298.15 K) [kg/m3] | viscosity ([2]; 308.15 K) [mPa·s] | mass density ([2]; 308.15 K) [kg/m3] | viscosity ([2]; 318.15 K) [mPa·s] | mass density ([2]; 318.15 K) [kg/m3]
C=C(C)C(=O)O [2-methyl-2-propenoic acid] | 1.447 ± 0.031 | 1018.3 ± 2.1 | 1.267 ± 0.027 | 1009.5 ± 2.1 | 1.078 ± 0.023 | 999.4 ± 2.1 | 0.945 ± 0.02 | 989.2 ± 2.1 | – | – | – | – | – | – | – | –
CCCCO [butan-1-ol] + C=C(C)C(=O)OCCO | – | – | – | – | – | – | – | – | 3.286 ± 0.07 | 812.3 ± 1.7 | 2.566 ± 0.055 | 805.6 ± 1.7 | 1.998 ± 0.043 | 798 ± 1.7 | 1.55 ± 0.033 | 790.5 ± 1.6
C=C(C)C(=O)OCCO [2-hydroxyethyl 2-methyl-2-propenoate] | 8.234 ± 0.19 | 1074.7 ± 2.4 | 5.784 ± 0.13 | 1067.1 ± 2.4 | 4.194 ± 0.096 | 1057.7 ± 2.4 | 3.181 ± 0.073 | 1048.6 ± 2.4 | – | – | – | – | – | – | – | –
CCCCO [butan-1-ol] + C=C(C)C(=O)O | – | – | – | – | – | – | – | – | 3.286 ± 0.07 | 812.3 ± 1.7 | 2.566 ± 0.055 | 805.6 ± 1.7 | 1.998 ± 0.043 | 798 ± 1.7 | 1.55 ± 0.033 | 790.5 ± 1.6
CCCCO [butan-1-ol] + C=C(C)C(=O)OCc1ccccc1 | – | – | – | – | – | – | – | – | 3.286 ± 0.07 | 812.3 ± 1.7 | 2.566 ± 0.055 | 805.6 ± 1.7 | 1.998 ± 0.043 | 798 ± 1.7 | 1.55 ± 0.033 | 790.5 ± 1.6
CCCCO [butan-1-ol] | 3.286 ± 0.07 | 812.3 ± 1.7 | 2.566 ± 0.055 | 805.6 ± 1.7 | 1.998 ± 0.043 | 798 ± 1.7 | 1.55 ± 0.033 | 790.5 ± 1.6 | – | – | – | – | – | – | – | –
C=C(C)C(=O)OCc1ccccc1 [benzyl methacrylate] | 2.871 ± 0.066 | 1041.2 ± 2.4 | 2.302 ± 0.053 | 1034.7 ± 2.3 | 1.885 ± 0.043 | 1025.8 ± 2.3 | 1.58 ± 0.036 | 1017 ± 2.3 | – | – | – | – | – | – | – | –
